We go through two compounds from patent publication US8734852B2, “Parenteral controlled release formulations of NSAID's” (priority 2011, dated 2014).

Data set [1] deals with interleukin1b-induced prostaglandin E2 production. The settings on record: cited from earlier work.
The conditions of data set [2]: upon dissolution in solvents; cited from earlier work.
The conditions of data set [3]: cited from earlier work.
The target in another data set is COX-I (Homo sapiens, UniProt P23219). The following applies: oral form; cited from earlier work.
The conditions of data set [4]: aqueous formulation; cited from earlier work.
In another data set the test system is Acute Lumbago patients. The data set can be described thus: Randomized comparative open labeled multicentric trial in Acute Lumbago (Phase III, 300 patients). It counts as in vivo, human. The following applies: at 8 hrs, 24 hrs and after 48 hrs of treatment; p<0.05.

COX-I, sequence (P23219 24-599): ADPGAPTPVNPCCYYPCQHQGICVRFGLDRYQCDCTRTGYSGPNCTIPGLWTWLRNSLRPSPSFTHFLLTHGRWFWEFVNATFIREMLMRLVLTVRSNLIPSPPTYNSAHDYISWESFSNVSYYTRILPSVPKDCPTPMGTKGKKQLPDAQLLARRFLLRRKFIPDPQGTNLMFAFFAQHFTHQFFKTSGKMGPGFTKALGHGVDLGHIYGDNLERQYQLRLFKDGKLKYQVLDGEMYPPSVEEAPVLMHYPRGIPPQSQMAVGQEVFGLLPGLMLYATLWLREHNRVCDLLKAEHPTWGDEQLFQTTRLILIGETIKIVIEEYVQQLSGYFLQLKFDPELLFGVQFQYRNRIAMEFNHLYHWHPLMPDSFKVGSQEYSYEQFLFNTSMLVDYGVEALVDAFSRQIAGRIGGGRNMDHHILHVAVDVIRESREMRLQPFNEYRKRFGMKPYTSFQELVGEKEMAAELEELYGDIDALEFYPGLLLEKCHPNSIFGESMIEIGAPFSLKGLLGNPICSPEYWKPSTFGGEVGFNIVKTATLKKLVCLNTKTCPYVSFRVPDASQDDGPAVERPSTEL

Take `O=C(O)COC(=O)Cc1ccccc1Nc1c(Cl)cccc1Cl` [Aceclofenac]: the “interleukin1b-induced prostaglandin E2 production” value in data set [1] is recorded as “inhibits”. Besides, the conversion into diclofenac result in data set [2] is given as “immediately upon dissolution in most of the solvents”. Besides, the solubility in water entry in data set [3] is on record as “water insoluble”. For the same compound, the COX-I inhibitor effect result at COX-I was “poor COX-I inhibitor effect”.

In the case of `O=C(O)Cc1ccccc1Nc1c(Cl)cccc1Cl` [Diclofenac], in data set [4], the “retention of drug inside body” value was no more than 8 h. Further, the “modified Schober's test improvement” value with Acute Lumbago patients is recorded as “progressive improvements”. Besides, the solubility in water result in data set [3] is “soluble in water”.
